Measurements as given in the supplement of paper PMC10307832.

Legend:
Assay in all cases: relative viability (nuclei count vs DMSO), 5 days (fraction); higher = more cells survive
17-AAG + Tozasertib = compound: C=CCNC1=C2C[C@@H](C)C[C@H](OC)[C@H](O)[C@@H](C)/C=C(\C)[C@H](OC(N)=O)[C@@H](OC)/C=C\C=C(/C)C(=O)NC(=CC1=O)C2=O [17-AAG] + Cc1cc(Nc2cc(N3CCN(C)CC3)nc(Sc3ccc(NC(=O)C4CC4)cc3)n2)n[nH]1 [Tozasertib] (partner 0.1 µM)
Summary of the method: (§1)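 Cells from lung cancer lines were seeded into 1536-well plates and, one day later, dosed by pin tool. Treatments were either a single drug or a fixed dose of an anchor drug with five library-drug doses (not always all listed) in √10 steps. After 5 days, nuclei were stained in a one-step fixation (final 0.05% Triton X-100, 1% formaldehyde, 1 ug/ml Hoechst) and counted on 4× images, and relative viability is the treated-to-vehicle nuclei ratio, as the median of duplicate plates.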

17-AAG + Foretinib = compound: C=CCNC1=C2C[C@@H](C)C[C@H](OC)[C@H](O)[C@@H](C)/C=C(\C)[C@H](OC(N)=O)[C@@H](OC)/C=C\C=C(/C)C(=O)NC(=CC1=O)C2=O [17-AAG] + COc1cc2c(Oc3ccc(NC(=O)C4(C(=O)Nc5ccc(F)cc5)CC4)cc3F)ccnc2cc1OCCCN1CCOCC1 [Foretinib] (partner 0.25 µM)
Summary of the method: as §1

17-AAG + AZD7762 = compound: C=CCNC1=C2C[C@@H](C)C[C@H](OC)[C@H](O)[C@@H](C)/C=C(\C)[C@H](OC(N)=O)[C@@H](OC)/C=C\C=C(/C)C(=O)NC(=CC1=O)C2=O [17-AAG] + NC(=O)Nc1cc(-c2cccc(F)c2)sc1C(=O)N[C@H]1CCCNC1 [AZD7762] (partner 0.2 µM)
Summary of the method: as §1

17-AAG + Luminespib = compound: C=CCNC1=C2C[C@@H](C)C[C@H](OC)[C@H](O)[C@@H](C)/C=C(\C)[C@H](OC(N)=O)[C@@H](OC)/C=C\C=C(/C)C(=O)NC(=CC1=O)C2=O [17-AAG] + CCNC(=O)c1noc(-c2cc(C(C)C)c(O)cc2O)c1-c1ccc(CN2CCOCC2)cc1 [Luminespib] (partner 0.01 µM)
Summary of the method: as §1

Cell Line | relative viability (17-AAG + Tozasertib; first compound 0.00128 µM) | relative viability (17-AAG + Tozasertib; first compound 0.004048 µM) | relative viability (17-AAG + Tozasertib; first compound 0.0128 µM) | relative viability (17-AAG + Tozasertib; first compound 0.04048 µM) | relative viability (17-AAG + Tozasertib; first compound 0.128 µM) | relative viability (17-AAG + Foretinib; first compound 0.00128 µM) | relative viability (17-AAG + Foretinib; first compound 0.004048 µM) | relative viability (17-AAG + Foretinib; first compound 0.0128 µM) | relative viability (17-AAG + Foretinib; first compound 0.04048 µM) | relative viability (17-AAG + Foretinib; first compound 0.128 µM) | relative viability (17-AAG + AZD7762; first compound 0.00128 µM) | relative viability (17-AAG + AZD7762; first compound 0.004048 µM) | relative viability (17-AAG + AZD7762; first compound 0.0128 µM) | relative viability (17-AAG + AZD7762; first compound 0.04048 µM) | relative viability (17-AAG + AZD7762; first compound 0.128 µM) | relative viability (17-AAG + Luminespib; first compound 0.00128 µM) | relative viability (17-AAG + Luminespib; first compound 0.004048 µM) | relative viability (17-AAG + Luminespib; first compound 0.0128 µM) | relative viability (17-AAG + Luminespib; first compound 0.128 µM) | relative viability (17-AAG + Luminespib; first compound 0.04048 µM)
HCC-78 | 0.443 | 0.401 | 0.418 | 0.637 | 0.223 | 0.525 | 0.574 | 0.611 | 0.516 | 0.499 | 0.599 | 0.821 | 0.666 | 0.155 | 0.352 |  |  |  |  | 
HCC-366 | 0.191 | 0.22 | 0.268 | 0.044 | 0.0391 | 0.958 | 0.968 | 0.89 | 0.126 | 0.0491 | 0.281 | 0.402 | 0.045 | 0.0325 | 0.0323 |  |  |  |  | 
HCC-827 | 0.402 | 0.427 | 0.467 |  | 0.432 | 1.06 | 0.978 | 1.03 |  | 0.727 | 0.216 | 0.238 | 0.163 |  | 0.164 | 0.579 | 0.706 | 0.652 | 0.291 | 
HOP-62 | 0.363 | 0.466 | 0.386 | 0.212 | 0.17 | 1.16 | 1.05 | 0.858 | 0.549 | 0.382 | 0.733 | 0.416 | 0.256 | 0.11 | 0.0928 | 0.928 | 0.806 | 0.919 | 0.136 | 0.36
IA-LM |  |  |  |  |  | 1.21 | 1.05 | 1.19 | 0.491 | 0.313 |  |  |  |  |  |  |  |  |  | 
LC-2-ad | 0.437 | 0.437 | 0.429 | 0.316 | 0.226 | 0.891 | 0.898 | 0.515 | 0.343 | 0.261 | 0.841 | 0.835 | 0.714 | 0.297 | 0.161 | 0.949 | 0.83 | 0.305 | 0.258 | 0.302
NCI-H520 | 0.453 | 0.47 | 0.457 | 0.253 | 0.24 | 0.763 | 0.56 | 0.702 | 0.169 | 0.142 |  |  |  |  |  | 0.236 | 0.22 | 0.227 | 0.188 | 0.202
NCI-H522 | 0.621 | 0.532 | 0.619 | 0.558 | 0.502 |  |  |  |  |  | 0.845 | 0.857 | 0.569 | 0.51 | 0.393 | 0.902 | 1.03 | 0.948 | 0.451 | 1.02
NCI-H661 | 0.372 | 0.326 | 0.358 | 0.344 | 0.289 | 0.945 | 0.989 | 0.809 | 0.567 | 0.286 |  |  |  |  |  | 0.872 | 0.895 | 0.797 | 0.257 | 0.353
NCI-H1299 |  |  |  |  |  | 1.12 | 1.03 | 1.08 | 1.04 | 0.945 |  |  |  |  |  |  |  |  |  | 
NCI-H1563 |  |  |  |  |  | 1.04 | 0.83 | 0.559 | 0.549 | 0.5 |  |  |  |  |  | 0.476 | 0.497 | 0.537 | 0.49 | 0.525
NCI-H1648 | 0.433 |  | 0.426 | 0.608 | 0.327 |  |  |  |  |  |  | 0.854 | 0.558 | 0.626 | 0.325 |  |  |  |  | 
NCI-H1650 | 0.458 | 0.317 | 0.215 | 0.175 | 0.206 | 0.89 | 0.344 | 0.225 | 0.212 | 0.175 |  |  |  |  |  | 0.195 | 0.194 | 0.228 | 0.215 | 0.214
NCI-H1703 |  |  |  |  |  | 0.325 | 0.331 | 0.215 | 0.229 | 0.191 | 0.114 | 0.156 | 0.113 | 0.109 | 0.134 |  |  |  |  | 
NCI-H1792 |  |  |  |  |  |  |  |  |  |  | 0.494 | 0.302 | 0.0583 | 0.0445 | 0.0494 | 0.351 | 0.418 | 0.255 | 0.213 | 0.268
NCI-H2009 | 0.727 | 0.72 | 0.756 | 0.65 | 0.259 | 1.23 | 1.14 | 1.17 | 0.85 | 0.138 |  |  |  |  |  | 0.983 | 0.983 | 0.871 | 0.0842 | 0.354
NCI-H2023 | 0.51 | 0.351 | 0.102 | 0.0765 | 0.0654 | 0.93 | 0.672 | 0.297 | 0.0761 | 0.0537 |  |  |  |  |  | 0.52 | 0.25 | 0.228 | 0.0689 | 0.0785
NCI-H2228 | 0.301 | 0.151 | 0.105 | 0.131 | 0.128 | 0.772 | 0.587 | 0.142 | 0.119 | 0.0997 |  |  |  |  |  | 0.124 | 0.102 | 0.11 | 0.107 | 0.157
SK-LU-1 | 0.426 | 0.243 | 0.128 | 0.152 | 0.139 | 0.863 | 0.566 | 0.167 | 0.143 | 0.127 |  |  |  |  |  | 0.215 | 0.174 | 0.176 | 0.15 | 0.177
SK-MES-1 | 0.872 | 0.851 | 0.168 | 0.164 | 0.143 | 1 | 0.997 | 0.501 | 0.192 | 0.154 |  |  |  |  |  | 0.633 | 0.327 | 0.181 | 0.157 | 0.166
SW 1573 | 0.234 | 0.254 | 0.117 | 0.104 | 0.0907 | 0.886 | 1.01 | 0.829 | 0.24 | 0.113 |  |  |  |  |  | 0.285 | 0.168 | 0.146 | 0.0673 | 0.12
UMC-11 | 0.222 | 0.219 | 0.225 | 0.217 | 0.222 | 1.02 | 1.04 | 0.847 | 0.27 | 0.174 |  |  |  |  |  | 0.973 | 0.94 | 0.552 | 0.196 | 0.254
